According to patent publication US5478946A, “Guanidino compounds as regulators of nitric oxide synthase” (Abbott Laboratories, priority 1993, dated 1995):

Assays:
[1] = target: T1, Type I NOS (rat brain cytosol) (Rattus norvegicus, UniProt P29476); experiment: [3H]-Arginine to [3H]-Citrulline conversion, rat brain cytosol (Type I NOS); format: biochemical; conditions: for IC50: read-out: Inhibition of [3H]-Citrulline Formation IC50, Rat Brain Cytosol
T1 construct: type I isozyme from rat brain cerebellum; from tissue; host or cells: rat brain (cytosol; cerebellum, phosphocellulose-purified)
Excerpt: (§1) The enzyme NO synthase produces EDRF/NO and citrulline from L-arginine (Bredt and Snyder, Proc. Nat'l. Acad. Sci. USA, 1989, 87: 682-5). The enzymatic generation of EDRF/NO is monitored by measuring the conversion of [^3 H]-L-arginine to [^3 H]-L-citrulline. An inhibitor of this specific enzymatic reaction lowers the conversion rate and, thus, the amount of [^3 H]-L-citrulline produced. Likewise, a compound acting as a substrate would compete with L-arginine and thereby lower the conversion rate.
(§2) The conversion of L-arginine to L-citrulline was assayed as reported previously (Bredt and Snyder, Proc. Nat'l Acad Sci USA, 1989, 87: 682-5) with minor modifications. Briefly, samples of partially purified NO synthase, 50-100 μg of protein or 20 μL of cytosol (alternatively cytosolic preparations from RAW 264.7 cells, a murine monocyte-macrophage cell line, induced for 16 hours with 10 μg/mL medium of Lipopolysaccharide (LPS), or partially purified (phosphocellulose column) type I isozyme from rat brain cerebellum, or partially purified isozyme III from bovine aortic endothelial cells (BAE cells)) were incubated for 20 minutes (3 minutes in the cases of purified enzyme preparations) at 25° C. in the presence of 10 μM L-[2,3-^3 H]arginine (55 Ci /mmol) (containing 34 nM (0.2 μCi)), 1 mM NADPH, and 2 Mm CaCl2 in a final volume of 100 μL. The reaction was stopped by adding 1 mL of stop buffer (2 mM EGTA, 2 mM EDTA 20 mM Hepes, pH 5.5). The total volume was then applied to a 1 mL Dowex AG 50 WX-8 column (Na^+ form, Bio-Rad) that had been pre-equilibrated with the stop buffer. L-[2,3-^3 H]Citrulline was eluted (2×) with 0.5 mL of stop buffer and radioactivity was determined by liquid scintillation counting.
(§3) The following Tables present data on the inhibition of [^3 H]-citrulline formation from [^3 H]-L-arginine by the compounds of the invention in various preparations representative of the isoforms of NOS, Types I, II, and III NOS as represented by rat brain cytosol, […] macrophage cell cytosol, and BAE homogenate preparation respectively.

[2] = target: T2, Type III NOS (BAE homogenate preparation) (Bos taurus, UniProt P29473); experiment: [3H]-Arginine to [3H]-Citrulline conversion, BAE homogenate preparation (Type III NOS); format: biochemical, bovine; conditions: for IC50: read-out: Inhibition of [3H]-Citrulline Formation IC50, BAE Preparation
T2 construct: partially purified isozyme III from bovine aortic endothelial cells (BAE cells); endogenous in cells; host or cells: bovine aortic endothelial (BAE) cells
Excerpt: as §1, §2, §3

[3] = target: T3, Type II NOS (RAW macrophage cell cytosol) (Mus musculus, UniProt P29477); experiment: [3H]-Arginine to [3H]-Citrulline conversion, RAW cell cytosol (Type II NOS); format: biochemical, murine; conditions: for IC50 / inhibition at 100 µM: LPS induced; for IC50: read-out: Inhibition of [3H]-Citrulline Formation IC50, RAW Cell cytosol
T3 construct: cytosolic preparations from RAW 264.7 cells; endogenous in cells; host or cells: RAW 264.7 cells, LPS-induced for 16 hours
Excerpt: as §1, §2, §3

[4] = system: RFL-6 rat fetal lung fibroblast cells; experiment: cGMP assay, RFL-6 cells as detectors of EDRF/NO; format: cell-based; conditions: presence of superoxide dismutase; 6-well plates
Excerpt: In those instances where it is suspected that the test substance is acting as a substrate rather than an inhibitor, the EDRF/NO may be estimated. For this confirmation bioassay, a method for quantification of endothelium-derived relaxing factor (EDRF) is utilized and is described in detail below. This technique, measuring cyclic GMP responses of RFL-6 rat fetal lung fibroblast cells to estimate NO or EDRF is sensitive, simple and quite useful for the evaluation of compounds that regulate EDRF/NO release from various endothelial cells, or other cells or tissues (such as for example RAW cells (induced with LPS) and N1E-115 cells). (cf. Ishii, K., et al., American Journal of Physiology, 1991,261:(2 pt 2) H598-603). The cyclic GMP measured is an indirect measure of the amount of EDRF/NO produced by NO synthase, so compounds that reduce the amount of cyclic GMP produced are termed inhibitors of NO synthase, and those that increase cyclic GMP in the absence of exogenous L-arginine are termed substrates or stimulators of NO synthase.
This is a new bioassay method for detection and quantification of endothelium-derived relaxing factor (EDRF) wherein cyclic GMP responses of RFL-6 rat fetal lung fibroblast cells are utilized to estimate the activity of nitric oxide (NO) and EDRF. […]

[5] = read-out: Percent Inhibition of [3H]-Citrulline Formation, Rat Brain Cytosol
[6] = read-out: Percent Inhibition of [3H]-Citrulline Formation, BAE Preparation
[7] = read-out: Percent Inhibition of [3H]-Citrulline Formation, RAW Cell Cytosol

IC50 [1] [µM] | inhibition at 30 µM ([1]; tested at 30 μM, read-out: Percent Inhibition of [3H]-Citrulline Formation, Rat Brain Cytosol) [%] | IC50 [2] [µM] | inhibition at 30 µM ([2]; tested at 30 μM, read-out: Percent Inhibition of [3H]-Citrulline Formation, BAE Preparation) [%] | IC50 [3] [µM] | inhibition at 10 µM ([3]; tested at 10 μM, read-out: Percent Inhibition of [3H]-Citrulline Formation, RAW Cell Cytosol) [%] | inhibition at 100 µM [1, 5] [%] | inhibition at 100 µM [2, 6] [%] | inhibition at 100 µM [3, 7] [%] | Compound | lowest concentration of NO to which RFL-6 cells responded [4] [nM]
> 30 | 0 | > 30 | 0 | 22 | 46 |  |  |  | N=C(NN)NC/C=C/[C@H](N)CO [Example 6, N^G -Aminoguanidinyl-4(S)-amino-pent-2,E-ene-5-ol] | 
30 |  | > 100 |  | > 100 |  | 74 | 40 | 43 | CNC(=N)NC/C=C/[C@H](N)CO [Example 10, N^G -Methylguanidinyl-4(S)-Amino-pent-2 ,E-ene-5-ol] | 
30 |  | > 100 |  | > 100 |  | 70 | 5 | 8 | CCNC(=N)NC/C=C/[C@H](N)CO [Example 12, N^G Ethylguanidinyl-4(S)-Amino-pent-2,E-ene-5-ol] | 
> 100 |  | > 100 |  | > 100 |  | 0 |  | 0 | C/C(=C\[C@H]1COC(C)(C)N1C(=O)OC(C)(C)C)CNC(=N)N[N+](=O)[O-] [Example 14, 3-(1,1-Dimethylethyl)-(S)-4-(3-nitroguanidino-2-methyl-propen-1,E-yl)-2,2-dimethyl-3-oxazolidinecarboxylate] | 
10 |  | 100 |  | 40 |  | 90 | 50 | 66 | C/C(=C\[C@H](N)CO)CNC(=N)N[N+](=O)[O-] [Example 15, N^G -Nitroguanidinyl-4(S)-Amino-2-methyl-pent-2,E-ene-5-ol] | 
35 |  | > 100 |  | > 100 |  | 77 | 0 | 27 | CNC(=N)NC/C=C/[C@@H](N)CO [Example 19, N-^G -Methylguanidinyl-4(R)-Amino-pent-2,E-ene,5-ol] | 
20 |  | 100 |  | 30 |  | 86 | 50 | 94 | C/C(=C\[C@H](N)CO)CNC(=N)N [Example 21, N^G -Guanidinyl-4(S)-Amino-2-methyl-pent-2,E-ene-5-ol] | 
40 |  | 100 |  | < 100 |  | 70 | 50 | 97 | CC(C)(C)OC(=O)N1[C@H](/C=C/CNC(=N)N)COC1(C)C [Example 22, 3-(1,1-Dimethylethyl)-(R)-4-(3-guanidinopropen-1.E-yl)-2,2-dimethyl-3-oxazolidinecarboxylate] | 
40 |  | > 100 |  | > 100 |  | 80 | 14 | 20 | N=C(N)NC/C(=C/[C@H](N)CO)Cc1ccccc1 [Example 25, N^G -Guanidinyl-4(S)-Amino-2-benzyl-pent-2,E-ene-5-ol] | 
20 |  | > 100 |  | 20 |  | 86 | 46 | 97 | CNC(=N)NC/C(C)=C/[C@H](N)CO [Example 27, N^G -Methylguanidinyl-4(S)-Amino-2-methyl-pent-2,E-ene-5-ol] | 
 |  |  |  |  |  |  |  |  | nitric oxide [NO] | 2
